Test results published in patent US10703748B2, “Diazanaphthalen-3-yl carboxamides and preparation and use thereof” (Samumed, LLC, priority 2017, dated 2020).

Columns and labels:
[1] = system: Wnt-responsive Sp5-Luc reporter in SW480 colon carcinoma cells; test: Screening assay for Wnt activity (Sp5-Luc reporter gene assay); settings: Homo sapiens; for EC50: SW480; for inhibition at 10 µM: SW480, read-out: percent inhibition at 10 μM
[2] = system: SW480 colon carcinoma cells; test: Cell viability assay (CellTiter-Glo); settings: Homo sapiens; for EC50: SW480, 96 h; for inhibition at 10 µM: SW480, read-out: percent inhibition at 10 μM
IL-6 = IL-6 inhibition in LPS-stimulated human peripheral blood mononuclear cells (HTRF); settings: Homo sapiens, PBMC; for EC50: 22 h; for inhibition at 10 µM: read-out: percentage in parentheses after EC50 >10
DYRK1A kinase = DYRK1A kinase (Homo sapiens, UniProt Q13627); test: DYRK1A kinase activity (Ser/Thr 18 peptide Z-lyte FRET assay); type: biochemical; settings: recombinant DYRK1A, 30 μM ATP, one hour at room temperature;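 also: kinase activity read as coumarin/fluorescein emission ratio after development step, with unphosphorylated and phosphorylated peptide forms setting 0% and 100% controls, values from dose-response curves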
[3] = system: α-smooth muscle actin (aSMA) positive LL29 cells; test: Inhibition of the fibrotic process: αSMA staining in TGF-β1 treated LL29 fibroblasts from IPF patients; settings: Homo sapiens, Fibroblast; for EC50: 96 h; for inhibition at 10 µM: read-out: percentage in parentheses after EC50 >10
GSK3β kinase = GSK3β kinase (Homo sapiens, UniProt P49841); test: GSK3β kinase activity (Ser/Thr 09 peptide Z-lyte FRET assay); type: biochemical; settings: recombinant kinase, 46 μM ATP, one hour at room temperature; read-out: EC50
GSK3β kinase, sequence (P49841 whole entry): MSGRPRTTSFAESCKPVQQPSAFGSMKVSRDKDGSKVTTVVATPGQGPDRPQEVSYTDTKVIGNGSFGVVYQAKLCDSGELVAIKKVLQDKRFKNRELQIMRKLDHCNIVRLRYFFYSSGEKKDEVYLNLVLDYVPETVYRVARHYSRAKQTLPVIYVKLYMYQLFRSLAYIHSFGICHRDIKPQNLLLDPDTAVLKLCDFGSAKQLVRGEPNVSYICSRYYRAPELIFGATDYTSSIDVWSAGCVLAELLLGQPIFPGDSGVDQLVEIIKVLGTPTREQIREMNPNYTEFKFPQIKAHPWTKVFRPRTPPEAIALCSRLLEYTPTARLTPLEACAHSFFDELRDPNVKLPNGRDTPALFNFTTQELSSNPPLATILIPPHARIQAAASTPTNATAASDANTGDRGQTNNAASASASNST

| SMILES | EC50 [1] [µM] | EC50 [2] [µM] | EC50 (IL-6) [µM] | inhibition at 10 µM (IL-6) [%] | EC50 (DYRK1A kinase) [µM] | EC50 [3] [µM] | EC50 (GSK3β kinase) [µM] | inhibition at 10 µM [1] [%] | inhibition at 10 µM [2] [%] | inhibition at 10 µM [3] [%] |
| --- | --- | --- | --- | --- | --- | --- | --- | --- | --- | --- |
| CN1CCC(Oc2ccc(C(=O)Nc3ncc4ccc(-c5cnn(C)c5)cc4n3)cc2)CC1 [Compound 1052, N-(7-(1-Methyl-1H-pyrazol-4-yl)quinazolin-2-yl)-4-((1-methylpiperidin-4-yl)oxy)benzamide] | 3.15 | 5.37 | > 10 | 3.8 | 0.035 | 8.74 | 9.43 | – | – | – |
| CCN(CC)CC(=O)Nc1ncc2ccc(-c3cnn(C)c3CN3CCCCC3)cc2n1 [Compound 1189, 2-(Diethylamino)-N-(7-(1-methyl-5-(piperidin-1-ylmethyl)-1H-pyrazol-4-yl)quinazolin-2-yl)acetamide] | > 10 | > 10 | > 10 | 7.9 | 0.186 | > 10 | 1.69 | 29.5 | 17.4 | 18 |
| Cn1cc(-c2ccc3cnc(NC(=O)C(C)(C)F)nc3c2)nn1 [Compound 1239, 2-Fluoro-2-methyl-N-(7-(1-methyl-1H-1,2,3-triazol-4-yl)quinazolin-2-yl) propanamide] | > 10 | > 10 | > 10 | 7.3 | 0.171 | > 10 | 0.112 | 47.4 | 17.2 | 13.5 |
| Cn1cc(-c2ccc3cnc(NC(=O)C4CCN(CC5(C)COC5)CC4)nc3c2)nn1 [Compound 1254, N-(7-(1-Methyl-1H-1,2,3-triazol-4-yl)quinazolin-2-yl)-1-((3-methyloxetan-3-yl)methyl)piperidine-4-carboxamide] | > 10 | > 10 | > 10 | 3.8 | 0.104 | 6.97 | 0.069 | 31.7 | 11.2 | – |
| Cn1cncc1-c1ccc2cnc(NC(=O)C3CCC(F)(F)CC3)nc2c1 [Compound 1306, 4,4-Difluoro-N-(7-(1-methyl-1H-imidazol-5-yl)quinazolin-2-yl)cyclohexane-1-carboxamide] | > 10 | > 10 | 8.81 | – | 0.391 | 1.8 | 0.377 | 42.4 | 43.7 | – |
| O=C(Nc1ncc2ccc(-c3cnco3)cc2n1)C1CCN(C(=O)CN2CCCC2)CC1 [Compound 1438, N-(7-(Oxazol-5-yl)quinazolin-2-yl)-1-(2-(pyrrolidin-1-yl)acetyl)piperidine-4-carboxamide] | > 10 | > 10 | > 10 | 9.6 | 0.1 | > 10 | 5.18 | 10 | 14.7 | 29.6 |
| Cc1ncc(-c2ccc3cnc(NC(=O)[C@H]4C[C@H](N5CCOCC5)C4)nc3c2)o1 [Compound 1462, trans-N-(7-(2-Methyloxazol-5-yl)quinazolin-2-yl)-3-morpholinocyclobutane-1-carboxamide] | > 10 | > 10 | > 10 | 0 | 0.37 | > 10 | 0.707 | 13.6 | 20.9 | 14.5 |
| Cc1ncc(-c2ccc3cnc(NC(=O)C4CCN(CC(C)(F)F)CC4)nc3c2)o1 [Compound 1471, 1-(2,2-Difluoropropyl)-N-(7-(2-methyloxazol-5-yl)quinazolin-2-yl)piperidine-4-carboxamide] | > 10 | > 10 | > 10 | 1.8 | 0.046 | > 10 | 0.578 | 17.8 | 11.3 | 43.6 |
| Cc1ncc(-c2ccc3cnc(NC(=O)N4CCC(N5CCOCC5)CC4)nc3c2)o1 [Compound 1472, N-(7-(2-Methyloxazol-5-yl)quinazolin-2-yl)-4-morpholinopiperidine-1-carboxamide] | > 10 | > 10 | > 10 | 7.6 | 0.246 | > 10 | 2.33 | 1.6 | 16.7 | 33.9 |
| Cc1ncc(-c2ccc3cnc(NC(=O)Cn4ccnc4)nc3c2)o1 [Compound 1495, 2-(1H-Imidazol-1-yl)-N-(7-(2-methyloxazol-5-yl)quinazolin-2-yl)acetamide] | 1.51 | > 10 | > 10 | 3.2 | 0.113 | > 10 | 0.254 | – | 25.5 | 48.5 |
| Cc1nnc(-c2ccc3cnc(NC(=O)CN4C5CCC4COC5)nc3c2)s1 [Compound 1634, 2-(3-Oxa-8-azabicyclo[3.2.1]octan-8-yl)-N-(7-(5-methyl-1,3,4-thiadiazol-2-yl)quinazolin-2-yl)acetamide] | > 10 | > 10 | > 10 | 5.4 | 0.342 | > 10 | 0.224 | 16.4 | 13.7 | 18.3 |
| Cc1nnc(-c2ccc3cnc(NC(=O)c4ccnc(N5CCN(C)CC5)c4)nc3c2)s1 [Compound 1656, N-(7-(5-Methyl-1,3,4-thiadiazol-2-yl)quinazolin-2-yl)-2-(4-methylpiperazin-1-yl)isonicotinamide] | 1.2 | 2.21 | > 10 | 6 | 0.065 | 1.76 | 0.34 | – | – | – |
| Cn1cc(-c2cnc3cnc(NC(=O)[C@H]4CCCN4)cc3c2)cn1 [Compound 2782, (R)—N-(3-(1-Methyl-1H-pyrazol-4-yl)-1,7-naphthyridin-6-yl)pyrrolidine-2-carboxamide] | > 10 | > 10 | > 10 | 4.3 | 0.867 | 2.4 | 2.45 | 2.2 | 18.8 | – |
| CC(C(=O)Nc1cc2cc(-c3cnn(C)c3)cnc2cn1)N1CCCCC1 (stereo not shown) [Compound 2791, N-(3-(1-Methyl-1H-pyrazol-4-yl)-1,7-naphthyridin-6-yl)-2-(piperidin-1-yl) propanamide] | > 10 | > 10 | > 10 | 5.3 | 0.513 | 6.13 | 3.47 | 10.5 | 24.8 | – |
| CN(C)CCNc1cc(C(=O)Nc2cc3cc(-c4cnn(C)c4)cnc3cn2)ccn1 [Compound 2884, 2-((2-(Dimethylamino)ethyl)amino)-N-(3-(1-methyl-1H-pyrazol-4-yl)-1,7-naphthyridin-6-yl)isonicotinamide] | > 10 | 3.88 | > 10 | 9.4 | 0.049 | 5.24 | > 10 | 44.1 | – | – |
| CN(C)Cc1ccc(C(=O)Nc2cc3cc(-c4cnn(C)c4)cnc3cn2)cc1 [Compound 2890, 4-((Dimethylamino)methyl)-N-(3-(1-methyl-1H-pyrazol-4-yl)-1,7-naphthyridin-6-yl)benzamide] | 3.58 | 3.86 | > 10 | 8.6 | 0.035 | > 10 | > 10 | – | – | 29.4 |
| CN1CCN(Cc2cccc(C(=O)Nc3cc4cc(-c5cnn(C)c5)cnc4cn3)c2)CC1 [Compound 2892, N-(3-(1-Methyl-1H-pyrazol-4-yl)-1,7-naphthyridin-6-yl)-3-((4-methylpiperazin-1-yl)methyl)benzamide] | > 10 | > 10 | > 10 | 16.5 | 0.039 | 3.96 | > 10 | 46.9 | 36 | – |
| CN1CCc2ccc(C(=O)Nc3cc4cc(-c5cnn(C)c5)cnc4cn3)cc2C1 [Compound 2922, 2-Methyl-N-(3-(1-methyl-1H-pyrazol-4-yl)-1,7-naphthyridin-6-yl)-1,2,3,4-tetrahydroisoquinoline-7-carboxamide] | 2.42 | > 10 | > 10 | 3.8 | 0.036 | > 10 | > 10 | – | 28.8 | 47.2 |
| Cn1cc(-c2cnc3cnc(NC(=O)c4ccc5nccnc5c4)cc3c2)cn1 [Compound 2936, N-(3-(1-Methyl-1H-pyrazol-4-yl)-1,7-naphthyridin-6-yl)quinoxaline-6-carboxamide] | > 10 | > 10 | > 10 | 8.3 | > 10 | > 10 | > 10 | 11.9 | 17.8 | 21.6 |
